# d = 2'-deoxy (DNA); m = 2'-O-methyl
# Columns and labels:
# [1] = test system: APE2; experiment: Western blot of kidney protein expression in platinum drug-treated mice: APE2; format: in vivo, mouse; conditions: for APE2 expression in kidney cells: 40 mg/kg single intraperitoneal dose
# Description: (§1) Ten-week-old wild-type C57BL/6J mice weighing 25-28 g were purchased from the Jackson Laboratory. […] An identical volume of saline (0.9% NaCl) was administered intraperitoneally to control mice.
# (§2) Total protein samples were isolated with RIPA buffer, fractionated on 4%-12% Bis-Tris polyacrylamide gels (Thermo Fisher Scientific), and electroblotted onto PVDF membranes (Millipore). Membranes were blocked with 5% nonfat milk and incubated overnight with rabbit anti-APE2 polyclonal antibody (Bioss, #bs-6587R), rabbit anti-APE1 polyclonal antibody (Abnova, #H00000328-D02), mouse anti-LIG3 monoclonal antibody (Santa Cruz Biotechnology, #sc-56089), rabbit anti-MRE11 monoclonal antibody (Cell Signaling Technology, #4847), rabbit anti-CtIP polyclonal antibody (Bethyl Laboratories, #300-488A), or goat anti-β-actin polyclonal antibody (Santa Cruz Biotechnology, #sc-1615) overnight at 4° C. Membranes were then washed and incubated with HRP-linked anti-rabbit IgG secondary antibody (Cell Signaling Technology, #7074) or HRP-linked anti-mouse IgG secondary antibody (Cell Signaling Technology, #7076S). […] Detection by chemiluminescence was carried out by means of a SuperSignal West Femto Maximum Sensitivity Substrate kit (Thermo Fisher Scientific) with β-actin as a loading control.
# [2] = test system: APE2; experiment: Immunofluorescence of APE2 subcellular localization in primary mouse PTCs after cisplatin; format: cell-based; conditions: primary mouse PTCs treated with cisplatin
# Description: (§3) HEK293T and HK2 cells were purchased from the ATCC. Mouse anti-Prominin-1 MicroBeads (130-092-333, Miltenyi Biotec) were used to isolate PTCs from APE2LSL/− CreERT2+/− mice, Cre-ERT2+/− mice, C57B6 mice, and APE2 KO mice. The primary PTCs were cultured in DMEM/Nutrient Mixture F-12 (DMEM/F12) containing 10% FBS, 100 U/mL penicillin, and 100 μg/mL streptomycin. HEK293T and HK2 cells were routinely genotyped using the Human Cell Line Genotyping System (Promega) and were used within their 6 times passage. Mouse PTCs were genotyped using the primer for transgenic mice and were used within their 3 times passage. All cell lines were used Mycoplasma tested negative.
# (§4) Immunofluorescence staining was performed as described previously (20). The slides of HK2 cells were incubated sequentially with rabbit anti-APE2 antibody (GeneTex), goat anti-rabbit Alexa Fluor 488-conjugated secondary antibody (Abcam), mouse anti-MYH9 antibody (GeneTex), goat anti-mouse Alexa Fluor 647-conjugated secondary antibody (Abcam), and rabbit anti-COXIV antibody Alexa Fluor […]-conjugated antibody (Santa Cruz Biotechnology). […]
# [3] = test system: wild-type (WT) and APE2 KO mice; conditions: mouse, in vivo, 15 mg/kg
# Description: as §1
# (§5) APE2 conditional transgenic mice were generated by inserting a transcription-translation STOP cassette flanked by LoxP sites (LSL) at the start of the APE2 locus. An FRT-mediated recombination ColA1 3′ untranslated region locus was used first to generate APE2LSL mice. The STOP cassette prevents expression of the APE2 gene. To remove the STOP cassette and activate APE2 expression in vivo, the APE2LSL mice were mated with Rosa26-Cre-Estrogen Receptor-T2 (CreERT2+/−) mice (18; #8463, The Jackson Laboratory), in which the ERT moiety retains Cre recombinase activity in the cytoplasm until tamoxifen administration releases this block and promotes recombination of genomic LoxP sites. Three-week-old APE2LSL/+CreERT2+/− mice and CreERT2+/− mice were injected intraperitoneally with 10 mg/kg 4-OH-tamoxifen for 3 consecutive days. Creatinine and EPO were measured using mouse creatinine (Crystal Chem) and EPO (R&D Systems) ELISA kits. We used heterozygous male (APE2−/Y) mice (12) bearing a mutated APE2 allele on the X chromosome, in which a genomic region from the 3′-region of its intron 5 to the 5′-region in exon 6 was replaced by a neo cassette by crossing heterozygous APE2 female (APE2−/+) mice with wild-type C57BL/6 mice. […] Using this breeding strategy, there is the potential risk and uncertainty of interference with the germline DNA in the male and female APE2 knockout progeny because APE2 has already been knocked out in the male parent (APE2−/Y) and because the function of APE2 is to be responsible for DNA damage repair (13). All mice were of C57B6 genetic background. All experiments involving animals were pre-approved by the Cleveland Clinic IACUC (Institutional Animal Care and Use Committee).
# (§6) Mouse kidney biopsy specimens were submerged in 2.5% EM grade glutaraldehyde in 2.5% glutaraldehyde/4% paraformaldehyde in 0.2 mol/L sodium cacodylate buffer (pH 7.4) at 4° C. immediately after sectioning and fixed at 4° C. overnight. After washing three times for 5 minutes in sodium cacodylate buffer (0.2 mol/L, pH 7.3), kidney fragments were fixed in 1% aqueous osmium tetroxide for 60 minutes at 4° C., then washed twice for 5 minutes with sodium cacodylate buffer and rinsed once with maleate buffer (pH 5.1, 5 minutes). After changing to 1% uranyl acetate in maleate buffer, the samples were stained for 60 minutes; the uranyl acetate was removed. The samples were then washed three times for 5 minutes with maleate buffer and then dehydrated with ascending grades of ethanol, and finally embedded in Epon resin (Electron Microscopy Science). […]
# [4] = test system: MRE11; experiment: Western blot of kidney protein expression in cisplatin-treated mice: MRE11; format: in vivo, mouse; conditions: cisplatin 15 mg/kg, 3 days after treatment
# Description: as §1, §2
# [5] = test system: PCNA; experiment: Western blot of kidney protein expression in cisplatin-treated mice: PCNA; format: in vivo, mouse; conditions: cisplatin 15 mg/kg, 3 days after treatment
# [6] = test system: LIG3; experiment: Western blot of kidney protein expression in cisplatin-treated mice: LIG3; format: in vivo, mouse; conditions: cisplatin 15 mg/kg, 3 days after treatment
# Description: as §1, §2
# [7] = test system: APE1; experiment: Western blot of kidney protein expression in cisplatin-treated mice: APE1; format: in vivo, mouse; conditions: cisplatin 15 mg/kg, 3 days after treatment
# Description: as §1, §2
# [8] = test system: APE2; experiment: Immunofluorescence of APE2 subcellular localization in HK2 cells after cisplatin; format: cell-based, human; conditions: HK2 cells treated with cisplatin
# Description: as §3, §4
# [9] = test system: CTIP; experiment: Western blot of kidney protein expression in cisplatin-treated mice: CTIP; format: in vivo, mouse; conditions: cisplatin 15 mg/kg, 3 days after treatment
# Description: as §1, §2
# [10] = test system: primary PTCs; experiment: Oxygen consumption (Seahorse Cell Mito Stress) of PTCs from cisplatin-treated mice; format: cell-based, mouse; conditions: PTCs of cisplatin-treated APE2 KO mice versus WT
# Description: as §3
# The functional activity of PTC mitochondria was measured by using a Seahorse XF24 Analyzer and a Seahorse XF Cell Mito Stress Test Assay (Agilent Technologies). Mitochondrial functionality was examined by direct measurement of the OCR of cells according to the manufacturer's instructions. Briefly, 8×10^4 PTCs were seeded into 24-well plates and allowed to attach overnight. The cells were subjected to OCR detection by sequential injections of oligomycin, carbonyl cyanide p-trifluoromethoxyphenylhydrazone (FCCP), and a combination of rotenone and antimycin A. Basal OCR=measured OCR level before the injection of oligomycin. Adenosine triphosphate (ATP) synthesis-linked OCR (ATP-linked)=basal OCR−OCR following oligomycin injection. […]
# [11] = within 24 hours of administration; cited from earlier work
# [12] = test system: APE2; experiment: IHC staining for APE2 in kidney biopsies of C-AKI patients; format: in vivo, human; conditions: two patients with C-AKI versus normal kidney biopsies
# Description: Kidney specimens were obtained from healthy donors and from cisplatin-induced AKI patients in accordance with Cleveland Clinic Foundation Institutional Review Board approval requirements, and written informed consent was obtained in compliance with the Helsinki. Formalin-fixed paraffin-embedded tissue sections were de-paraffinized and then incubated with rabbit anti-APE2 polyclonal antibody (Bioss, bs-6587R), rabbit anti-cleaved caspase-3monoclonal antibody (Cell Signaling Technology, #9664S), rabbit anti-MYH9 antibody (GeneTex GTX113236), or rabbit anti-phosphor-histone H2A.X(Ser139) polyclonal antibody (Cell Signaling Technology, #2577) at 4° C. overnight. After incubation with horseradish peroxidase (HRP)-conjugated goat anti-rabbit secondary antibody, signal was detected using a DAB Substrate kit (Abcam, ab64238) according the manufacturer's instructions. Images were obtained by means of a phase-contrast microscope (Leica DM2000 LED) and a digital camera (Leica DMC 2900).
# [13] = test system: CreERT2+/−, APE2LSL/− mice; experiment: APE2-ASO treatment of transgenic CreERT2+/−, APE2LSL/− mice (APE2 AKI mouse model); format: in vivo; conditions: for kidney function: treated 4 weeks, once per week
# Text: as §5, §6
# [14] = test system: APE2; experiment: PK/PD study in C57B6 mice, APE2 expression by western blot; format: in vivo, mouse
# Description: Further optimization of the ASO drug. Potential ASO toxicities fall into two categories: (i) hybridization-dependent toxicities due to on- or off-target events, and (ii) hybridization-independent toxicities, such as excessive immunostimulation due to non-antisense effects of the ASO. We performed the PK/PD study using C57B6 mice. We IP injected six weeks old male mice with 20 mg/kg APE2-ASO and checked the APE2 expression by western blot analysis. We found the APE2 could be knock down in two days and restored in 4 days after injection (FIG. 9).
# [15] = 20 mg/kg IP, six weeks old male C57B6 mice
compound,measurement,setting,value
N.N.O=C([O-])C1(C(=O)[O-])CCC1.[Pt+2] [carboplatin],APE2 expression in kidney cells,[1],slight upregulation
N.N.[Cl][Pt][Cl] [cisplatin],APE2 subcellular localization,[2],"enriched in the cytoplasm, especially within mitochondria"
same,kidney damage,[3],only minor kidney damage
same,kidney weight,[3],decreased kidney weight
same,mitochondrial fragmentation (EM),[3],less mitochondrial fragmentation
same,renal damage,[3],most severe
same,MRE11 expression in kidney,[4],slightly upregulated
same,PCNA expression in kidney,[5],downregulated
same,LIG3 expression in kidney,[6],slightly upregulated
same,APE2 expression in kidney,"[1]; cisplatin 15 mg/kg single intraperitoneal dose, kidney collected 3 days after treatment",the most highly upregulated protein
same,APE1 expression in kidney,[7],slightly upregulated
same,APE2 subcellular localization,[8],"enriched in the cytoplasm, especially within mitochondria"
same,CTIP expression in kidney,[9],slightly upregulated
same,OCR in PTCs,[10],significantly increased
same,cisplatin excreted via the urine,[11],50%-80%
same,APE2 protein in PTCs by IHC,[12],dramatically upregulated
O=C1[O][Pt]2([NH][C@@H]3CCCC[C@H]3[NH]2)[O]C1=O [oxaliplatin],APE2 expression in kidney cells,[1],slight upregulation
"mU*mG*mU*C*C*T*T*A*C*A*G*A*A*mG*mG*mU (UGUCCTTACAGAAGGU; sugars from the 5' end m3 d10 m3, all phosphorothioate, methylation of C not given here) [APE2-ASO-3]",plasma creatine level,"[13]; compared with saline treated controls, P<0.01",significantly reduced
same,mitochondrial morphology (EM),"[13]; compared with vehicle treated mice, age of eight weeks",remained relatively normal
same,kidney function,[13],protected
same,kidney function,[13]; listed as APE2-ASO gapmer drug,protected kidney function
same,time to APE2 knock down after injection,[14]; [15],two
same,time to restored APE2 expression after injection,[14]; [15],4 days
same,APE2 level,[14]; wild type C57B6 mice,knock down

# Source: patent US12460207B2, “Inhibiting APE2 expression in a subject treated with a drug agent that causes increased APE2 expression” (The Cleveland Clinic Foundation, priority 2021, dated 2025)
